One may read the inhibition in vivo as the relative decrease from the control value, in per cent.

Common to all, as to assay type: functional
Common to all, as to conditions: route intraperitoneal

The test system of test [1] is Rattus norvegicus. The test can be described thus: Antiinflammatory activity against carrageenan-induced paw edema in Wister albino rat assessed as inhibition of edema at 50 mg/kg, ip administered 1 hr prior to carrageenan challenge measured after 4 hrs relative to control. (In the carrageenan paw model, swelling and tenderness develop within hours.)
Test [2] has as its system Rattus norvegicus. Nature of the test: Antiinflammatory activity against carrageenan-induced paw edema in Wister albino rat assessed as inhibition of edema at 50 mg/kg, ip administered 1 hr prior to carrageenan challenge measured after 3 hrs relative to control.
The test system of test [3] is Rattus norvegicus. The test can be described thus: Antiinflammatory activity against carrageenan-induced paw edema in Wister albino rat assessed as inhibition of edema at 50 mg/kg, ip administered 1 hr prior to carrageenan challenge measured after 1 hr relative to control.
In test [4] the test system is Rattus norvegicus. Nature of the test: Antiinflammatory activity against carrageenan-induced paw edema in Wister albino rat assessed as inhibition of edema at 50 mg/kg, ip administered 1 hr prior to carrageenan challenge measured after 2 hrs relative to control.
The subject of test [5] is Rattus norvegicus. Nature of the test: Antiinflammatory activity against carrageenan-induced paw edema in Wister albino rat assessed as inhibition of edema at 50 mg/kg, ip administered 1 hr prior to carrageenan challenge measured after 4 hrs relative to indomethacin.
In test [6] the test system is Rattus norvegicus. Nature of the test: Antiinflammatory activity against carrageenan-induced paw edema in Wister albino rat assessed as inhibition of edema at 10 mg/kg, ip administered 1 hr prior to carrageenan challenge measured after 2 hrs relative to control.
Test [7] has as its system Rattus norvegicus. The test can be described thus: Antiinflammatory activity against carrageenan-induced paw edema in Wister albino rat assessed as inhibition of edema at 10 mg/kg, ip administered 1 hr prior to carrageenan challenge measured after 3 hrs relative to control.
The subject of test [8] is Rattus norvegicus. The test can be described thus: Antiinflammatory activity against carrageenan-induced paw edema in Wister albino rat assessed as inhibition of edema at 10 mg/kg, ip administered 1 hr prior to carrageenan challenge measured after 1 hr relative to control.
For test [9], the system named is Rattus norvegicus. The test can be described thus: Antiinflammatory activity against carrageenan-induced paw edema in Wister albino rat assessed as inhibition of edema at 10 mg/kg, ip administered 1 hr prior to carrageenan challenge measured after 4 hrs relative to control.

For `[3H]N1C(=O)[C@@]2(c3ccccc31)N(C)C[C@@H](c1ccco1)[C@@]21Cc2ccccc2C1=O`, the inhibition in vivo at 50 mg/kg in test [1] was found to be 33.5%; in test [2], 38.8%; in test [3], 48.8%; in [4], 53.6%. Further, the activity relative to indomethacin in [5] is 69%.
In the same order, the values of `[3H]N1C(=O)[C@@]2(c3ccccc31)N(C)C[C@@H](c1ccccc1)[C@@]21Cc2ccccc2C1=O` are 39.3%, 42.5%, 56%, 40% and 81%.
For the compound `[3H]C([3H])([3H])N1C(=O)[C@@]2(c3ccccc31)N(C)C[C@@H](c1ccc(F)cc1)[C@@]21Cc2ccccc2C1=O`, the inhibition in vivo at 50 mg/kg came out at 25.5% in [1], 26.9% in test [2], 52.9% in test [3] and 24.6% in test [4]. Also, the activity relative to indomethacin in [5] amounted to 53%.
For the compound `COc1ccc2c(c1)c(CC(=O)O)c(C)n2C(=O)c1ccc(Cl)cc1` [INDOMETHACIN], the inhibition in vivo at 10 mg/kg was 45.6% in test [6], 48.3% in test [7], 51% in test [8] and 48.5% in test [9].
Turning to `[3H]N1C(=O)[C@@]2(c3ccccc31)N(C)C[C@@H](c1ccc(F)cc1)[C@@]21Cc2ccccc2C1=O`, the inhibition in vivo at 50 mg/kg was found to be 21.8% in test [1], 21.1% in [2], 40.6% in [3] and 21.2% in [4]. Also, the activity relative to indomethacin in test [5] turned out to be 45%.
In the same order, the values of `[3H]N1C(=O)[C@@]2(c3ccccc31)N(C)C[C@@H](c1ccc(C)cc1)[C@@]21Cc2ccccc2C1=O` are 17.1%, 27.4%, 56.4%, 23.8% and 35%.
In the same order, the values of `[3H]C([3H])([3H])N1C(=O)[C@@]2(c3ccccc31)N(C)C[C@@H](c1ccco1)[C@@]21Cc2ccccc2C1=O` are 8.2%, 17.5%, 50.1%, 33.1% and 17%.
Regarding `[3H]C([3H])([3H])N1C(=O)[C@@]2(c3ccccc31)N(C)C[C@@H](c1ccc(C)cc1)[C@@]21Cc2ccccc2C1=O`, the inhibition in vivo at 50 mg/kg was found to be 13.9% in test [1], 6.4% in [2], 46.9% in test [3] and 8% in test [4]. Also, the activity relative to indomethacin in [5] is 29%.

The values are drawn from ChEMBL document CHEMBL1152855, “Regioselective synthesis of dispiro[1H-indene-2,3'-pyrrolidine-2',3''-[3H]indole]-1,2''(1''H)-diones of potential anti-tumor properties” (2009).
